# From patent publication US20230257351A1, “SUBSTITUTED N-[…] HAVING P2X4 RECEPTOR ANTAGONISTIC ACTIVITY” (Bayer Aktiengesellschaft, priority 2020, published 2023)
# pIC50: −log10 of the molar value.
# Molecular target: T1, human P2X4 (Homo sapiens, UniProt Q99571)
# T1 construct: expressed in transfected cells
# T1 sequence (Q99571 1-388): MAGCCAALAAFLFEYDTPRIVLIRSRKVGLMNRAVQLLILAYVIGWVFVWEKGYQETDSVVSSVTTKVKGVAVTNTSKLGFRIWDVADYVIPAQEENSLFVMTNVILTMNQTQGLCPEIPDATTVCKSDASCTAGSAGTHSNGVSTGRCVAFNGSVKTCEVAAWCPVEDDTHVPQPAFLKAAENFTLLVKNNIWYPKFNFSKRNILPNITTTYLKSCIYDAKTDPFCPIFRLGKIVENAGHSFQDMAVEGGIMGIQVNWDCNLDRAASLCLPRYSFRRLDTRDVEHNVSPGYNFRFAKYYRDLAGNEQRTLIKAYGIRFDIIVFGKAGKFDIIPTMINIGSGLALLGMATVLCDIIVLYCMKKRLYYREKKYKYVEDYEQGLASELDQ
# Assay: Human P2X4 HEK Cell FLIPR Assay
# Format: cell-based
# Settings: HEK293 stably expressing human P2X4, agonist Bz-ATP 3 μM (EC80); for pIC50: read-out: Human P2X4 HEK Cells (FLIPR Assay) avg IC50
# Protocol: Compounds were tested on a HEK293 cell line stably expressing human P2X4. Cells were cultured on poly-D-lysine-coated 384-well plates at a density of 15,000 cells/well and incubated overnight at 37° C., 5% CO2. P2X4 function was assessed by measuring intracellular calcium fluxes caused by Benzoylbenzoyl-ATP (Bz-ATP) using the calcium-chelating dye Fluo8-AM (Molecular Devices) with the Fluorescent Imaging Plate Reader Tetra (FLIPR^Tetra; Molecular Devices CA). On the day of the assay, the medium was removed and the cells were incubated for 30 min at 37° C. and 5% CO2 in 30 μl of dye buffer (Hank's balanced salt solution, 10 mM HEPES, 1.8 mM CaCl2, 1 mM MgCl2, 2 mM probenecid, 5 mM D-glucose monohydrate, 5 μM Fluo8-AM, pH=7.4). Compounds diluted in probenecid buffer (Hank's balanced salt solution, 10 mM HEPES, 1.8 mM CaCl2, 1 mM MgCl2, 2 mM probenecid, 5 mM D-glucose monohydrate, pH=7.4) at ten concentrations ranging from 25 μM to 1 nM (final concentration) were dispensed and incubated for 30 min at room temperature. […] The final assay volume was 50 μl and final DMSO concentration was 0.5%.
# The fluorescence intensity reflecting intracellular calcium changes was recorded before and after Bz-ATP addition, at an excitation and emission wavelengths of 470-495 nm and 515-575 nm respectively.
# The compounds were tested in triplicates and fluorescence intensity raw data normalized to the agonist control and fitted to the four-parameter logistic equation:
# Y=Bottom+(Top−Bottom)/(1+10^((Log IC50−X)*HillSlope))
# Assay plate acceptance was based on the signal window (S/B)[…] and the reference compound pIC50 within ±3σ the mean of historic pIC50 of the compound. Failure to meet two of the three criteria determined exclusion of the plate's results.
smiles,measurement,value
"CC(=O)N(c1ccc(F)c(F)c1)c1cc(NC(=O)Cc2cccc(F)c2Cl)cnn1 [Example 201, N-{5-[2-(2-chloro-3-fluorophenyl)acetamido]pyridazin-3-yl}-N-(3,4-difluorophenyl)acetamide]",Human P2X4 HEK Cells (FLIPR Assay) avg Efficacy,89%
same,pIC50,6.29
"CC(=O)N(c1ccccc1)c1cc(NC(=O)Cc2c(Cl)cccc2Cl)cnn1 [Example 185, N-{5-[2-(2,6-dichlorophenyl)acetamido]pyridazin-3-yl}-N-phenylacetamide]",Human P2X4 HEK Cells (FLIPR Assay) avg Efficacy,101%
same,pIC50,6.36
"CC(=O)N(c1ccc(C#N)c(C(F)(F)F)c1)c1cc(NC(=O)Cc2c(Cl)cccc2Cl)ccn1 [Example 12, N-[4-cyano-3-(trifluoromethyl)phenyl]-N-{4-[2-(2,6-dichlorophenyl)acetamido]pyridin-2-yl}acetamide]",Human P2X4 HEK Cells (FLIPR Assay) avg Efficacy,101%
"COc1cc(F)cc(N(C(C)=O)c2cc(NC(=O)Cc3c(F)cccc3Cl)ccn2)c1 [Example 164, N-{4-[2-(2-Chlor-6-fluorphenyl)acetamido]pyridin-2-yl}-N-(3-fluor-5-methoxyphenyl)acetamide]",Human P2X4 HEK Cells (FLIPR Assay) avg Efficacy,100%
same,pIC50,6.17
"CC(=O)N(c1cccc(F)c1)c1cc(NC(=O)Cc2c(F)cccc2Cl)cnn1 [Example 197, N-{5-[2-(2-chloro-6-fluorophenyl)acetamido]pyridazin-3-yl}-N-(3-fluorophenyl)acetamide]",Human P2X4 HEK Cells (FLIPR Assay) avg Efficacy,93%
same,pIC50,6.17
"CC(=O)N(c1ccc(F)c(C#N)c1)c1cc(NC(=O)Cc2cccc(C(F)(F)F)c2Cl)ccn1 [Example 20, N-(4-{2-[2-chloro-3-(trifluoromethyl)phenyl]acetamido}pyridin-2-yl)-N-(3-cyano-4-fluorophenyl)acetamide]",Human P2X4 HEK Cells (FLIPR Assay) avg Efficacy,99%
same,pIC50,6.13
"CC(=O)N(c1cc(C)cc(C#N)c1)c1cc(NC(=O)Cc2c(Cl)cccc2Cl)ccn1 [Example 176, N-(3-Cyan-5-methylphenyl)-N-{4-[2-(2,6-dichlorphenyl)acetamido]pyridin-2-yl}acetamide]",Human P2X4 HEK Cells (FLIPR Assay) avg Efficacy,101%
same,pIC50,6.25
"CC(=O)N(c1ccc(S(C)(=O)=O)c(Cl)c1)c1cc(NC(=O)Cc2c(F)cccc2Cl)ccn1 [Example 158, N-{4-[2-(2-Chlor-6-fluorphenyl)acetamido]pyridin-2-yl}-N-[3-chlor-4-(methylsulfonyl)phenyl]acetamide]",Human P2X4 HEK Cells (FLIPR Assay) avg Efficacy,97%
same,pIC50,6.19
"CC(=O)N(c1cc(F)cc(Cl)c1)c1cc(NC(=O)Cc2c(Cl)cccc2Cl)ccn1 [Example 139, N-(3-chloro-5-fluorophenyl)-N-{4-[2-(2,6-dichlorophenyl)acetamido]pyridin-2-yl}acetamide]",Human P2X4 HEK Cells (FLIPR Assay) avg Efficacy,100%
same,pIC50,6.45
"CC(=O)N(c1ccc(C)c(Cl)c1)c1cc(NC(=O)Cc2ccccc2Cl)ccn1 [Example 180, N-(3-Chlor-4-methylphenyl)-N-{4-[2-(2-chlorphenyl)acetamido]pyridin-2-yl}acetamide]",Human P2X4 HEK Cells (FLIPR Assay) avg Efficacy,101%
same,pIC50,6.24
"CC(=O)N(c1cc(NC(=O)Cc2cccc(F)c2Cl)ccn1)c1ccccc1F [Example 117, N-{4-[2-(2-chloro-3-fluorophenyl)acetamido]pyridin-2-yl}-N-(2-fluorophenyl)acetamide]",Human P2X4 HEK Cells (FLIPR Assay) avg Efficacy,95%
same,pIC50,6.10
"CC(=O)N(c1cc(NC(=O)Cc2c(F)cccc2Cl)ccn1)c1ccc(C)cc1C [Example 172, N-{4-[2-(2-Chlor-6-fluorphenyl)acetamido]pyridin-2-yl}-N-(2,4-dimethylphenyl)acetamide]",Human P2X4 HEK Cells (FLIPR Assay) avg Efficacy,104%
same,pIC50,6.28
"CC(=O)N(c1cc(NC(=O)Cc2cccc(F)c2Cl)ccn1)c1ccc(C(F)(F)F)cc1F [Example 119, N-{4-[2-(2-chloro-3-fluorophenyl)acetamido]pyridin-2-yl}-N-[2-fluoro-4-(trifluoromethyl)phenyl]acetamide]",Human P2X4 HEK Cells (FLIPR Assay) avg Efficacy,101%
same,pIC50,6.03
"CC(=O)N(c1cc(NC(=O)Cc2c(F)cccc2Cl)ccn1)c1ccc(F)c(C)c1C [Example 184, N-{4-[2-(2-Chlor-6-fluorphenyl)acetamido]pyridin-2-yl}-N-(4-fluor-2,3-dimethylphenyl)acetamide]",Human P2X4 HEK Cells (FLIPR Assay) avg Efficacy,104%
same,pIC50,6.05
"CC(=O)N(c1cccc(F)c1)c1cc(NC(=O)Cc2ccc(F)cc2Cl)cnn1 [Example 198, N-{5-[2-(2-chloro-4-fluorophenyl)acetamido]pyridazin-3-yl}-N-(3-fluorophenyl)acetamide]",Human P2X4 HEK Cells (FLIPR Assay) avg Efficacy,96%
same,pIC50,6.03
"CC(=O)N(c1cc(NC(=O)Cc2cccc(F)c2Cl)ccn1)c1ccccc1C(F)F [Example 167, N-{4-[2-(2-Chlor-3-fluorphenyl)acetamido]pyridin-2-yl}-N-[2-(difluormethyl)phenyl]acetamide]",Human P2X4 HEK Cells (FLIPR Assay) avg Efficacy,100%
same,pIC50,6.17
"CC(=O)N(c1cc(NC(=O)Cc2ccc(F)cc2Cl)ccn1)c1ccc(C)cc1C [Example 174, N-{4-[2-(2-Chlor-4-fluorphenyl)acetamido]pyridin-2-yl}-N-(2,4-dimethylphenyl)acetamide]",Human P2X4 HEK Cells (FLIPR Assay) avg Efficacy,103%
same,pIC50,6.28
"CC(=O)N(c1ccc(Cl)c(F)c1)c1cc(NC(=O)Cc2c(Cl)cccc2Cl)ccn1 [Example 61, N-(4-chloro-3-fluorophenyl)-N-{4-[2-(2,6-dichlorophenyl)acetamido]pyridin-2-yl)acetamide]",Human P2X4 HEK Cells (FLIPR Assay) avg Efficacy,98%
same,pIC50,6.22
"CC(=O)N(c1cc(NC(=O)Cc2c(Cl)cccc2Cl)ccn1)c1ccccc1Cl [Example 109, N-(2-chlorophenyl)-N-{4-[2-(2,6-dichlorophenyl)acetamido]pyridin-2-yl}acetamide]",Human P2X4 HEK Cells (FLIPR Assay) avg Efficacy,100%
same,pIC50,6.19
"CC(=O)N(c1ccc(S(C)(=O)=O)c(F)c1)c1cc(NC(=O)Cc2c(Cl)cccc2Cl)ccn1 [Example 82, N-{4-[2-(2,6-dichlorophenyl)acetamido]pyridin-2-yl}-N-[3-fluoro-4-(methanesulfonyl)phenyl]acetamide]",Human P2X4 HEK Cells (FLIPR Assay) avg Efficacy,97%
same,pIC50,6.30
"CC(=O)N(c1cc(NC(=O)Cc2ccccc2Cl)ccn1)c1ccccc1C(F)F [Example 166, N-{4-[2-(2-Chlorphenyl)acetamido]pyridin-2-yl}-N-[2-(difluormethyl)phenyl]acetamide]",Human P2X4 HEK Cells (FLIPR Assay) avg Efficacy,97%
same,pIC50,6.18
"CC(=O)N(c1cc(NC(=O)Cc2cccc(C(F)(F)F)c2Cl)ccn1)c1ccccc1Cl [Example 105, N-(2-chlorophenyl)-N-(4-{2-[2-chloro-3-(trifluoromethyl)phenyl]acetamido}pyridin-2-yl)acetamide]",Human P2X4 HEK Cells (FLIPR Assay) avg Efficacy,100%
same,pIC50,6.11
"CC(=O)N(c1ccc(Cl)c(C#N)c1)c1cc(NC(=O)Cc2ccc(F)cc2Cl)ccn1 [Example 17, N-(4-chloro-3-cyanophenyl)-N-{4-[2-(2-chloro-4-fluorophenyl)acetamido]pyridin-2-yl)acetamide]",Human P2X4 HEK Cells (FLIPR Assay) avg Efficacy,99%
same,pIC50,6.20
"CC(=O)N(c1cc(NC(=O)Cc2c(Cl)cccc2Cl)ccn1)c1ccccc1C(F)F [Example 165, N-{4-[2-(2,6-Dichlorphenyl)acetamido]pyridin-2-yl}-N-[2-(difluormethyl)phenyl]acetamide]",Human P2X4 HEK Cells (FLIPR Assay) avg Efficacy,99%
same,pIC50,6.40
"CC(=O)N(c1cccc(C(F)(F)F)c1)c1cc(NC(=O)Cc2ccc(F)cc2Cl)ccn1 [Example 7, N-{4-[2-(2-chloro-4-fluorophenyl)acetamido]pyridin-2-yl}-N-[3-(trifluoromethyl)phenyl]acetamide]",Human P2X4 HEK Cells (FLIPR Assay) avg Efficacy,97%
same,pIC50,6.07
"CC(=O)N(c1ccc(S(C)(=O)=O)c(Cl)c1)c1cc(NC(=O)Cc2ccc(F)cc2Cl)ccn1 [Example 159, N-{4-[2-(2-Chlor-4-fluorphenyl)acetamido]pyridin-2-yl}-N-[3-chlor-4-(methylsulfonyl)phenyl]acetamide]",Human P2X4 HEK Cells (FLIPR Assay) avg Efficacy,99%
same,pIC50,6.02
